According to patent US10184134B2, “Soybean event SYHT0H2 and compositions and methods for detection thereof” (Syngenta Participations AG, priority 2010, dated 2019):

Experiments:
Assay type in all cases: in vivo
[1] = test system: non-transgenic soybean line Jack; assay: Field efficacy against mesotrione, non-transgenic soybean line Jack; settings: 210 g ai/ha mesotrione at V2/V3 stage, 5 locations in the United States
Method: (§1) Event SYHT0H2 soybean plants were tested for efficacy against mesotrione in 5 locations in the United States. The non-transgenic soybean line Jack was used as a control. Soybean plants, both SYHT0H2 and Jack, were treated with 210 g ai/ha of mesotrione at the V2/V3 stage and then assessed for percentage of leaves showing injury at 4-7 days after treatment (DAT), 13-17 DAT, and 25-33 DAT.

[2] = test system: Event SYHT0H2 soybean plants; assay: Herbicide tolerance performance of transgenic soybean transformants; settings: event SYHT0H2 from a population of about 90 transformants
From the text: After plants became established in the soil and new growth appeared (˜1-2 weeks), plants were sampled and tested for the presence of desired transgene by TAQMAN® analysis using appropriate probes for the HPPD genes, or promoters (for example prCMP). Positive plants were transplanted into 4″ square pots containing Fafard #3 soil. Sierra 17-6-12 slow release fertilizer was incorporated into the soil at the recommended rate. The plants were then relocated into a standard greenhouse to acclimatize (˜1 week). The environmental conditions were: 27° C. day; 21° C. night; 14 hour photoperiod (with supplemental light); ambient humidity. After acclimatizing (˜1 week), the plants were sampled and tested in detail for the presence and copy number of inserted transgenes. Transgenic soybean plants were grown to maturity for T1 seed production. T1 plants were grown up, and after TAQMAN® analysis, homozygous plants were grown for seed production. Transgenic seeds and progeny plants were used to further evaluate their herbicide tolerance performance and molecular characteristics.

[3] = test system: Event SYHT0H2 soybean plants; assay: Field efficacy against mesotrione, event SYHT0H2 soybean plants; settings: 210 g ai/ha mesotrione at V2/V3 stage, 5 locations in the United States
Method: as §1

[4] = test system: non-transgenic soybean line Jack; assay: Field efficacy against glufosinate, non-transgenic soybean line Jack; settings: 900 g ai/ha glufosinate at V2/V3 stage and second treatment at V5-V6 stage, 8 locations in the United States
Method: (§2) SYHT0H2 soybean plants were tested for efficacy against glufosinate in 8 locations in the United States. The non-transgenic soybean line Jack was used as a control. Soybean plants, both SYHT0H2 and Jack, were treated with 900 g ai/ha of glufosinate at the V2/V3 stage and then a second treatment at the V5-V6 stage. They were then assessed for percentage of leaves showing injury at 4-8 days after treatment (DAT), 13-20 DAT, and 26-35 DAT.

SYHT0H2 soybean plants = assay: Field efficacy against glufosinate, SYHT0H2 soybean plants; settings: 900 g ai/ha glufosinate at V2/V3 stage and second treatment at V5-V6 stage, 8 locations in the United States
Method: as §2

Compound: CS(=O)(=O)c1ccc(C(=O)C2C(=O)CCCC2=O)c([N+](=O)[O-])c1 [mesotrione]
- % Injury (percentage of leaves showing injury) ([1]; 4-7 DAT): 46.5%
- % Injury (percentage of leaves showing injury) ([1]; 13-17 DAT): 81%
- % Injury (percentage of leaves showing injury) ([1]; 25-33 DAT): 62.4%
- herbicide tolerance of event SYHT0H2 [2]: high level of mesotrione tolerance
- % Injury (percentage of leaves showing injury) ([3]; 4-7 DAT): 13.2%
- % Injury (percentage of leaves showing injury) ([3]; 13-17 DAT): 4.7%
- % Injury (percentage of leaves showing injury) ([3]; 25-33 DAT): 0%

Compound: 2-amino-4-methylphosphinobutyric acid [glufosinate]
- % Injury (percentage of leaves showing injury) ([4]; 4-8 DAT): 100%
- % Injury (percentage of leaves showing injury) ([4]; 13-20 DAT): 100%
- % Injury (percentage of leaves showing injury) ([4]; 26-35 DAT): 100%
- % Injury (percentage of leaves showing injury) (SYHT0H2 soybean plants; 4-8 DAT): 9%
- % Injury (percentage of leaves showing injury) (SYHT0H2 soybean plants; 13-20 DAT): 5%
- % Injury (percentage of leaves showing injury) (SYHT0H2 soybean plants; 26-35 DAT): 0%
